According to patent US20250320471A1, “Method for Producing Compounds, Method for Producing Compound Library, Compound Library, and Screening Method” (The University of Tokyo, priority 2021, published 2025):
Numbering of substitutions follows the chain as printed. Numbers in names are those of the source. Where “and” joins values, the source holds several entries; their conditions need not be identical. Equal values may be shown once. Ends that are not written are not given here. Peptide text beside a SMILES is read from it.

How the values were obtained:
LimF [1] = test: Steady-state kinetics of prenylation facilitated by LimF (wild type); format: biochemical, Limnothrix sp. CACIAM 69d; conditions: Tyr-prenylation (C10 O-), 5 μM LimF, 16° C.
Procedure: Under optimal conditions, the steady-state kinetic parameters of the prenylation reaction of bcLimE2 facilitated by LimF were measured by the methods described below.
The concentration dependence of GPP and MgCl2 in bcLimE2 prenylation reactions facilitated by LimF was measured in reaction systems containing 1 μM LimF, 1 mM or a suitably modified concentration of GPP, 50 mM HEPES pH 7.2, 0.4 mM substrate, 1 mM DTT, and 40 mM or a suitably modified concentration of MgCl2. A reaction solution containing components other than GPP was prepared and preheated to 25° C., and the reaction was then started by adding GPP. After incubating at 25° C., the reaction was stopped at each point and analyzed by LC-MS. Next, the initial rate was calculated as the slope of increase in the amount of prenylation product produced in the linear region. Three separate reactions were carried out under each condition and the mean and standard deviation of the results were used for the analysis.
For GPP concentration dependence and peptide substrate concentration dependence, the kinetic parameters were estimated by fitting the initial rate and GPP substrate concentration or peptide substrate concentration to the Michaelis-Menten model in Graphpad Prism 8.4.2 (GraphPad Prism Software Inc., San Diego, California) software.
Kinetic parameters of the His-prenylation reaction facilitated by LimF were determined based on reactions under optimal conditions using substrates of different concentrations. For the Tyr-prenylation described below, the kinetic parameters were measured under the same conditions except that LimF was set to 5 μM and the reaction temperature was set to 16° C. In order to estimate the kinetic parameters, the initial rate and substrate concentration were fitted to the Michaelis-Menten model in Graphpad Prism 8.4.2 software.
In order to further evaluate the two different prenylation modes by LimF, two teMPs (teR6-H5A/Y7H and teR6-H5A) that undergo efficient His-prenylation and Tyr-prenylation, respectively, were designed and chemically synthesized. Kinetic analysis was carried out according to the above method using these peptides.
Target sequence in this assay (as listed by the source): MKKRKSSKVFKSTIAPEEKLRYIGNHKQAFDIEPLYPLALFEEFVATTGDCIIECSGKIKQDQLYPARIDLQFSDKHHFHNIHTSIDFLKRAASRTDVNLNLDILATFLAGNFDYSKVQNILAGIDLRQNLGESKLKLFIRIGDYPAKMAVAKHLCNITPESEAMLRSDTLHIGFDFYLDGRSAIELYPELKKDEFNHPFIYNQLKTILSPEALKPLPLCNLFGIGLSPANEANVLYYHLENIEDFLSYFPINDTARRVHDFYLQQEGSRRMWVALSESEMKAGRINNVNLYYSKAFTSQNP

LimF [2] = test: His-prenylation of low molecular weight compounds, peptides and proteins by LimF; format: biochemical, Limnothrix sp. CACIAM 69d; conditions: 100 μM LimF, 2 mM GPP, 20 hours; for His-prenylation efficiency (LC/MS): standard conditions
Excerpt: Next, various low molecular weight compounds, peptides, and proteins, including various compounds that have already been approved as pharmaceuticals, were subjected to His-prenylation facilitated by LimF.

PirF = conditions: Tyr C10 O-prenylation; cited from earlier work
Fnq26 = target: T1, Fnq26 (Streptomyces virginiae, UniProt A2AXG5); conditions: Aromatic C10 O-prenylation; cited from earlier work
T1 sequence (A2AXG5 1-300): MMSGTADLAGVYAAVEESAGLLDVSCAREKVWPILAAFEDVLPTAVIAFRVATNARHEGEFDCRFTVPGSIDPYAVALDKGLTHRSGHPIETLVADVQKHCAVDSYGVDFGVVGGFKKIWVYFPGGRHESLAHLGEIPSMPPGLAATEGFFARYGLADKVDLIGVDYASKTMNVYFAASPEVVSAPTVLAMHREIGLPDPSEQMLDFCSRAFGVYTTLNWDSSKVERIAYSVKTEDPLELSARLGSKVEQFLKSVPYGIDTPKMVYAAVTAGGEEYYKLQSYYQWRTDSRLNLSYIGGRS

PagF = conditions: Tyr C5 O-prenylation; cited from earlier work
bcLimE2 [3] = test: Prenyl group donor tolerance of LimF variants (conversion of bcLimE2); format: biochemical; parameters: key to Final Conversion Efficiency: “n.r.” indicates that the reaction did not proceed; conditions: for Final Conversion Efficiency: substrate bcLimE2
Procedure: An attempt was made to change the selectivity of LimF with respect to prenyl group donors examined in “2. Evaluation of Enzymatic Activity of LimF” by introducing a mutation into LimF. […], illustrated in FIG. 7(a), was used as the substrate.
(§1) For the assay of LimF variants, 100 μM bcLimE2 was incubated individually at a 5 μL scale with 20 to 100 μM LimF variants under conditions of 1 mM GPP or DMAPP, 50 mM HEPES (pH 7.2), 40 mM MgCl2, 1 mM DTT, and DMSO (4%, v/v). After incubating for 16 hours at 25° C., the reaction was stopped by adding 9 times the amount (45 μL) of a 1% TFA aqueous solution. Next, the mixture was incubated on ice for 10 minutes, a precipitate was separated by centrifugation at 4° C. (15300×g, 10 minutes), and 1 μL of supernatant was subjected to LC-MS analysis.
An amino acid forming a small pocket that stores a prenyl group in the crystal structure was selected for the introduction site of the LimF mutation. Specifically, Gly at position 224 was selected, and this was substituted with a larger amino acid. […] This alignment supports the hypothesis that the 224th Gly contributes to prenyl group selectivity.
as §1, with “[…]” for “5 μL”, “or FPP,” for “or DMAPP,”, “7.2), 5” for “7.2), 40”, “([…])” for “(45 μL)”
An amino acid forming a small pocket that stores a prenyl group in the crystal structure was selected for the introduction site of the LimF mutation. Specifically, the amino acids at the positions described in the table in the left column of FIG. 19 were replaced with relatively small Ala.
Therefore, substitution of amino acids other than Ala with respect to the W273 position was comprehensively performed (middle column of FIG. 19). As a result, The mutation for W273N and W273T are focused, and in addition to the W273N mutation and the W273T mutation, simultaneous substitution with various amino acids was performed for His at 239, which is an amino acid adjacent to position 273 (right column of FIG. 19).

bcLimE2 [4] = target: T2, bcLimE2
T2 chain: RYPHEEIP

## tecyclo[DFRGNATYIPC] [teR6-H5A]
LimF [1]
  Kcat: 0.0167 s⁻¹ and 0.0167 ± 0.0017 s⁻¹
  Km: 7300 ± 1800 µM
LimF [1]; listed as tecyclo[DFRGNATYIPC]
  Kcat: 0.0167 s⁻¹

## Teduglutide (HGDGSFSDEMNTILDNLAARDFINWLIQTKITD; chains of the INN, looked up)
LimF [2]
  prenylation of His residue or imidazole C2 carbon by LimF (in words): very high efficiency
LimF [2]; 125 μM substrate
  His-prenylation efficiency (LC/MS): 50%

## CN/C(=N\C#N)NCCSCc1nc[nH]c1C [Cimetidine, cimetidine]
LimF [2]
  prenylation of His residue or imidazole C2 carbon by LimF (in words): very high efficiency
LimF [2]; 500 μM substrate
  His-prenylation efficiency (LC/MS): 97%

## MSGVDYYNPFAGDDAE
PirF
  Kcat: 0.0183 s⁻¹
  Km: 118 µM

## H-Pyr-His-Trp-Ser-Tyr-D-Leu-Leu-Arg-Pro-NHEt [Leoprorelin]
LimF [2]
  prenylation of His residue or imidazole C2 carbon by LimF (in words): very high efficiency
LimF [2]; 500 μM substrate
  His-prenylation efficiency (LC/MS): 99%

## tecyclo[wAVSNLPPRPHITYIEC]S [PBm1]
LimF [2]
  prenylation of His residue or imidazole C2 carbon by LimF (in words): very high efficiency
LimF [2]; 500 μM substrate
  His-prenylation efficiency (LC/MS): 99%

## cyclo[MSGVDYYNP] (head-to-tail cyclized)
PirF
  Kcat: 0.0117 s⁻¹
  Km: 116 µM

## CCNC(=O)[C@@H]1CCCN1C(=O)[C@H](CCCNC(=N)N)NC(=O)[C@H](CC(C)C)NC(=O)[C@@H](Cc1cn(Cc2ccccc2)cn1)NC(=O)[C@H](Cc1ccc(O)cc1)NC(=O)[C@H](CO)NC(=O)[C@H](Cc1c[nH]c2ccccc12)NC(=O)[C@H](Cc1cnc[nH]1)NC(=O)[C@@H]1CCC(=O)N1 [Histrelin, H-Pyr-His-Trp-Ser-Tyr-D-His(1-Bn)-Leu-Arg-Pro-NHEt]
LimF [2]
  prenylation of His residue or imidazole C2 carbon by LimF (in words): very high efficiency
LimF [2]; 500 μM substrate
  His-prenylation efficiency (LC/MS): 99%

## NC(=O)[C@@H]1CCCN1C(=O)[C@H](Cc1cnc[nH]1)NC(=O)[C@@H]1CCC(=O)N1 [TRH]
LimF [2]; 500 μM substrate
  His-prenylation efficiency (LC/MS): 15%

## Aviptadil: synthetic vasoactive intestinal polypeptide (HSDAVFTDNYTRLRKQMAVKKYLNSILN; Aviptadil)
LimF [2]; 125 μM substrate
  His-prenylation efficiency (LC/MS): about 90%
LimF [2]; 125 μM substrate, listed as Avipt ?
  His-prenylation efficiency (LC/MS): 90%

## Pramlintide: analog of amylin (KCNTATCATQRLANFLVHSSNNFGPILPPTNVGSNTY; Pramlintide)
LimF [2]
  prenylation of His residue or imidazole C2 carbon by LimF (in words): very high efficiency
LimF [2]; 125 μM substrate
  His-prenylation efficiency (LC/MS): 99%

## O=C(O)c1ccc(O)cc1 [4-hydroxy-benzoate]
Fnq26
  Kcat: 0.00233 s⁻¹
  Km: 5600 µM

## H-Asp-Arg-Val-Tyr-Ile-His-Pro-Phe-OH [ANGIOTENSIN II]
LimF [2]; 500 μM substrate
  His-prenylation efficiency (LC/MS): 1%

## O=C1C(O)=CC(=O)c2c(O)cc(O)cc21 [flaviolin]
Fnq26
  Kcat: 0.000217 s⁻¹
  Km: 21 µM

## Insulin
LimF [2]; 500 μM substrate
  His-prenylation efficiency (LC/MS): 5%

## N[C@@H](Cc1ccc(O)cc1)C(=O)N[C@@H](Cc1ccc(O)cc1)C(=O)N[C@@H](Cc1ccc(O)cc1)C(=O)O [YYY] (H-Tyr-Tyr-Tyr-OH)
PagF
  Kcat: 0.0967 s⁻¹
  Km: 160 µM

## Cyclo(-Ser-Asn-Leu-Ser-Thr-Asu)-Val-Leu-Gly-Lys-Leu-Ser-Gln-Glu-Leu-His-Lys-Leu-Gln-Thr-Tyr-Pro-Arg-Thr-Asp-Val-Gly-Ala-Gly-Thr-Pro-NH2 [Elcatonin]
LimF [2]; 125 μM substrate
  His-prenylation efficiency (LC/MS): 5%

## Trp-His-Trp-Leu-Gln-Leu-Lys-Pro-Gly-Gln-Pro-Met-Tyr-OH (WHWLQLKPGQPMY-OH) [α-mating factor, cell signaling peptide for yeast]
LimF [2]; 500 μM substrate
  His-prenylation efficiency (LC/MS): 39%

## CCCC[C@H](NC(C)=O)C(=O)N[C@H]1CC(=O)NCCCC[C@@H](C(=O)O)NC(=O)[C@H](Cc2c[nH]c3ccccc23)NC(=O)[C@H](CCCN=C(N)N)NC(=O)[C@@H](Cc2ccccc2)NC(=O)[C@H](Cc2cnc[nH]2)NC1=O [Bremelanotide, Ac-Nle-Asp(1)-His-D-Phe-Arg-Trp-Lys(1)-OH]
LimF [2]; 500 μM substrate
  His-prenylation efficiency (LC/MS): 1%

B1: LimF-H239G/W273T (protein)
chain: MKKRKSSKVFKSTIAPEEKLRYIGNHKQAFDIEPLYPLALFEEFVATTGDCIIECSGKIKQDQLYPARIDLQFSDKHHFHNIHTSIDFLKRAASRTDVNLNLDILATFLAGNFDYSKVQNILAGIDLRQNLGESKLKLFIRIGDYPAKMAVAKHLCNITPESEAMLRSDTLHIGFDFYLDGRSAIELYPELKKDEFNHPFIYNQLKTILSPEALKPLPLCNLFGIGLSPANEANVLYYGLENIEDFLSYFPINDTARRVHDFYLQQEGSRRMTVALSESEMKAGRINNVNLYYSKAFTSQNP
bcLimE2 [3]; 100 μM bcLimE2, 1 mM GPP or FPP, 5 mM MgCl2, 16 hours, 25° C.
  C15 prenylation (farnesylation) selectivity and efficiency: high selectivity and high efficiency
bcLimE2 [3]; prenyl group donor DMAPP
  Final Conversion Efficiency: n.r.
bcLimE2 [3]; prenyl group donor FPP
  Final Conversion Efficiency: >99%
bcLimE2 [3]; prenyl group donor GGPP
  Final Conversion Efficiency: n.r.
bcLimE2 [3]; prenyl group donor GPP
  Final Conversion Efficiency: 16.9%
bcLimE2 [4]
  KM (mM), kinetics of prenylation of bcLimE2 with FPP as prenyl group donor: 0.62 mM
  KM (mM), kinetics of prenylation of bcLimE2 with GPP as prenyl group donor: 0.58 mM

B2: wt-LimF: prenyltransferase derived from Limnothrix sp. CACIAM 69d, SEQ ID NO: 1 (protein, listed as Limnothrix sp.)
chain: B1 chain with G239H, T273W
modifications: CACIAM 69d
bcLimE2 [3]; prenyl group donor DMAPP
  Final Conversion Efficiency: n.r.
bcLimE2 [3]; prenyl group donor FPP
  Final Conversion Efficiency: 0.0027%
bcLimE2 [3]; prenyl group donor GGPP
  Final Conversion Efficiency: n.r.
bcLimE2 [3]; prenyl group donor GPP
  Final Conversion Efficiency: >99%
